Source: ChEMBL document CHEMBL1154957, “Preparation and in vitro screening of symmetrical bispyridinium cholinesterase inhibitors bearing different connecting linkage-initial study for Myasthenia gravis implications” (Bioorg Med Chem Lett, 2010)
Calls of active or inactive are those of the source. The rule behind the calls is not given here.

What was measured:
Cholinesterase = Cholinesterase (Homo sapiens, UniProt P06276); test: Inhibition of human plasma BChE after 5 mins by Ellman's method; assay type: cell-free
Acetylcholinesterase [1] = biological target: T1, Acetylcholinesterase (Homo sapiens, UniProt P22303); test: Inhibition of human erythrocyte AChE after 5 mins by Ellman's method
Acetylcholinesterase [2] = biological target: T1, Acetylcholinesterase; test: Inhibition of human erythrocyte AChE at 0.0000001 mM to 1 mM after 5 mins by Ellman's method
Acetylcholinesterase [3] = biological target: T1, Acetylcholinesterase; test: Inhibition of human erythrocyte AChE after 5 mins by noncompetitive Lineweaver-Burke plot analysis for enzyme-inhibitor complex
Acetylcholinesterase [4] = biological target: T1, Acetylcholinesterase; test: Inhibition of human erythrocyte AChE after 5 mins by noncompetitive Lineweaver-Burke plot analysis

T1 sequence (P22303 whole entry): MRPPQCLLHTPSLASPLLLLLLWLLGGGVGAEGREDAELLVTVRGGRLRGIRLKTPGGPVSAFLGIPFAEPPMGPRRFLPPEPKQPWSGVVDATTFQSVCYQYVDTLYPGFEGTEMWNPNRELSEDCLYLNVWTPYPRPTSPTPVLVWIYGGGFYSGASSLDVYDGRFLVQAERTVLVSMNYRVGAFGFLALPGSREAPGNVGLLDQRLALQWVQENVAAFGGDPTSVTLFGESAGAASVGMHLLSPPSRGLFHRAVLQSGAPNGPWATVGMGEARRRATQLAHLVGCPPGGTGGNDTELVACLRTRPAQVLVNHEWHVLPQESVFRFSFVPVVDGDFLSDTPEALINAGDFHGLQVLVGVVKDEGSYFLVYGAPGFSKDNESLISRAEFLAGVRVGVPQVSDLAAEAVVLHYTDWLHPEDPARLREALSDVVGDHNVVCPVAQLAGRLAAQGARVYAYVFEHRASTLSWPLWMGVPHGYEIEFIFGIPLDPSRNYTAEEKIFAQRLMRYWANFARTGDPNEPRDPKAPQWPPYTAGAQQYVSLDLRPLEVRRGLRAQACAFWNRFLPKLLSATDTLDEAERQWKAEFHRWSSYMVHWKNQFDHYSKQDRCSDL
Chain of Cholinesterase (P06276 whole entry): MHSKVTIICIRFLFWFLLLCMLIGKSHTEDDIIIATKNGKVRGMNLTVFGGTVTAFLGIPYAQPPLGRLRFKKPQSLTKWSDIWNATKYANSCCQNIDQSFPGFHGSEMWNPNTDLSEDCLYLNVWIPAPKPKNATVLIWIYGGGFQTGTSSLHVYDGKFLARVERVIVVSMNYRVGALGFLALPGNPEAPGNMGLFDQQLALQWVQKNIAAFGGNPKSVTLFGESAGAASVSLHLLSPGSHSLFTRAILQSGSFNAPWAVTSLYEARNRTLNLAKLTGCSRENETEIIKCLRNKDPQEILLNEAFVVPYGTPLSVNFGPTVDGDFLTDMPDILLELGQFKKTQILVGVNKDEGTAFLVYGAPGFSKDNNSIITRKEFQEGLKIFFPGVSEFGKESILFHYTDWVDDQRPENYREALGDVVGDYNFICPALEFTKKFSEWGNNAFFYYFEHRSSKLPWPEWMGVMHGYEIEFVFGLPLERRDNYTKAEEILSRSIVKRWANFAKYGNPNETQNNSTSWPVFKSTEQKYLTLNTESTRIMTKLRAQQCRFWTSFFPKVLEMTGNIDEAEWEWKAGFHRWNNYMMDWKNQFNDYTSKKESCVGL

| Structure (SMILES) | IC50 (Cholinesterase) [µM] | IC50 (Acetylcholinesterase [1]) [µM] | inhibition (Acetylcholinesterase [2]) | Ki (Acetylcholinesterase [3]) [µM] | Ki (Acetylcholinesterase [4]) [µM] |
| --- | --- | --- | --- | --- | --- |
| c1cc[n+](CCCC[n+]2ccccc2)cc1 | 9800 | 505 | – | – | – |
| c1cc[n+](C[n+]2ccccc2)cc1 | – | – | inactive | – | – |
| c1cc[n+](CCCCCC[n+]2ccccc2)cc1 | 130 | 63 | – | – | – |
| c1cc[n+](CCCCCCCCCCCC[n+]2ccccc2)cc1 | – | – | inactive | – | – |
| C(=C/C[n+]1ccccc1)/C[n+]1ccccc1 | 1270 | 1990 | – | – | – |
| c1cc[n+](CCCCCCCC[n+]2ccccc2)cc1 | 29 | 31 | – | – | – |
| c1cc[n+](CCCCCCCCCCC[n+]2ccccc2)cc1 | 7 | 0.7 | – | 0.02 | 0.03 |
| c1cc[n+](CC[n+]2ccccc2)cc1 | – | – | inactive | – | – |
| c1cc[n+](CCC[n+]2ccccc2)cc1 | – | – | inactive | – | – |
| C(=C\C[n+]1ccccc1)/C[n+]1ccccc1 | 541 | 2290 | – | – | – |
| c1cc[n+](Cc2ccccc2C[n+]2ccccc2)cc1 | 345 | 636 | – | – | – |
| c1cc[n+](CCCCCCCCC[n+]2ccccc2)cc1 | 6 | 2 | – | – | – |
| c1cc[n+](Cc2cccc(C[n+]3ccccc3)c2)cc1 | 1380 | 2360 | – | – | – |
| CN(C)C(=O)Oc1cccc([N+](C)(C)C)c1 [NEOSTIGMINE BROMIDE] | 0.8 | – | – | – | – |
| c1cc[n+](CCOCC[n+]2ccccc2)cc1 | 2360 | 2010 | – | – | – |
| c1cc[n+](Cc2ccc(C[n+]3ccccc3)cc2)cc1 | 529 | 1540 | – | – | – |
| c1cc[n+](CCCCCCC[n+]2ccccc2)cc1 | 78 | 241 | – | – | – |
| c1cc[n+](COC[n+]2ccccc2)cc1 | 583 | 1770 | – | – | – |
| c1cc[n+](CCCCC[n+]2ccccc2)cc1 | 120 | 1270 | – | – | – |
| c1cc[n+](Cc2ccc3ccc(C[n+]4ccccc4)cc3c2)cc1 | 0.8 | 0.2 | – | 0.14 | 0.14 |
